From a melting point compilation (Tetko et al.; mined from patent text by program, amines drawn as free bases though some values may be those of a salt)

Q: Which melting point does the source give for `CNc1nc(C(C)c2ccc(-c3ccccc3)c(F)c2)c(C=O)s1` (stereo not given) here?
A: The melting point was 126 to 128 °C.

Q: Which melting point does the source give for `COc1ccc(-c2ccc3c(c2)C(C)(C)OC(=O)N3)cc1F` here?
A: The melting point was 210 to 211 °C.

Q: With `CN(C)Cc1cnc(NC(=O)[C@H](CC2CCCC2)c2ccc(S(C)(=O)=O)c(Cl)c2)cn1` as the compound, how does the melting point read?
A: The melting point was 88 to 91.5 °C.

Q: With `COc1ccc(OC)c2c1C[C@@H](O)[C@H](N1CCN(c3ccccc3Cl)CC1)C2` (relative stereo) as the compound, how does the melting point read?
A: Its melting point is 237 to 239 °C.

Q: Which melting point does the source give for `CNC(=S)Nc1ccc(Oc2sc(C(N)=O)c3c2-c2c(cnn2C)CC3)cc1` here?
A: The melting point was 199 to 201 °C.

Q: For `CN(C(=S)N[C@@H](Cc1ccc(NC(=O)c2c(Cl)cncc2Cl)cc1)C(=O)O)c1ccccc1Cc1ccccc1`, which melting point is on record?
A: The melting point was 198 °C.

Q: For `CCc1ncnc(NC(CC)c2ccc(Oc3c(F)c(F)c(C(F)(F)F)c(F)c3F)cc2)c1Cl` (stereo not given), which melting point is on record?
A: Its melting point is 58 to 61 °C.

Q: With `CC(=O)CCc1ccc2ccccc2c1` as the compound, how does the melting point read?
A: The melting point was 56 to 58 °C.

Q: Which melting point does the source give for `NC(=O)N(CC(=O)OCCCCCCOC(=O)CN(C(N)=O)c1ccccc1)c1ccccc1` here?
A: The melting point was 131 to 140 °C.

Q: For `Nc1ncnc2c1c(-c1ccccc1)cn2-c1cccc(O)c1`, which melting point is on record?
A: Its melting point is 227 to 228 °C.

Q: For `CS(=O)(=O)c1ccc(-c2cnn(-c3cc(Cl)cc(Cl)c3)c(=O)c2-c2ccc(F)cc2)cc1`, which melting point is on record?
A: Its melting point is 289 to 294 °C.

Q: Which melting point does the source give for `N#Cc1cc([N+](=O)[O-])ccc1N1CCC(=O)CC1` here?
A: Its melting point is 109 °C.

Q: For `O=c1[nH]c(=O)n(Cc2ccc(OCCc3coc(-c4ccccc4)n3)cc2)[nH]1`, which melting point is on record?
A: Its melting point is 224 to 230 °C.

Q: With `CCC1OC(=O)C(C)C(OC2CC(C)(OC)C(O)C(C)O2)C(C)C(OC2OC(C)CC(N(C)C)C2O)C(C)(OC)CC(C)C(=O)C(C)C(O)C1(C)O` (stereo not given) as the compound, how does the melting point read?
A: Its melting point is 100 °C.

Q: Which melting point does the source give for `O=S(=O)(C(/C=C/c1ccc(Cl)cc1)c1c(F)c(F)c(F)c(F)c1F)C(/C=C/c1ccc(Cl)cc1)c1c(F)c(F)c(F)c(F)c1F` (stereo not given) here?
A: The melting point was 154 to 155 °C.

Q: For `Cc1ccc(NC(=O)N(C)Cc2cccc3c2CN(C2CCC(=O)NC2=O)C3=O)cc1C` (stereo not given), which melting point is on record?
A: Its melting point is 228 to 230 °C.

Q: Which melting point does the source give for `COC(=O)Nc1ccccc1C=Cc1ccccc1Cl` here?
A: The melting point was 135 to 137 °C.

Q: For `O=C(NCc1ccc(OCc2cccc(F)c2)cc1)C(=NO)c1ccccn1`, which melting point is on record?
A: The melting point was 146 to 148 °C.

Q: Which melting point does the source give for `CSc1nc(-c2ccncc2)cc(=O)n1C` here?
A: Its melting point is 176 to 178 °C.

Q: Which melting point does the source give for `CC(Oc1ccc(-c2cccc(NC(N)=O)c2)cc1)C(O)CCc1cccnc1` (stereo not given) here?
A: Its melting point is 75 to 76 °C.

Q: Which melting point does the source give for `O=C(CO)c1ccc(F)cc1` here?
A: Its melting point is 116 to 117 °C.

Q: Which melting point does the source give for `CCOC(=O)N1CCc2nc3c(O)c(Br)cc(Br)c3c(C)c2CC1` here?
A: The melting point was 179 °C.

Q: With `CN(C)CCOc1ccc(Cl)c(C(=O)NCC23CC4CC(CC(C4)C2)C3)c1` as the compound, how does the melting point read?
A: Its melting point is 144 to 147 °C.

Q: Which melting point does the source give for `CC(C)(C)c1cc(SC2(Sc3cc(C(C)(C)C)c(O)c(C(C)(C)C)c3)CCCCC2)cc(C(C)(C)C)c1O` here?
A: Its melting point is 195 to 197 °C.

Q: For `CCCCc1nc(Cl)c(CNC(=O)OCC)n1Cc1ccc(-c2ccccc2C(=O)O)cc1`, which melting point is on record?
A: The melting point was 144 to 147 °C.

Q: With `CCc1nc2c(N)nc3ccc(OCc4ccccc4)cc3c2n1CCCCNC(=O)c1ccccc1` as the compound, how does the melting point read?
A: Its melting point is 226 to 230 °C.

Q: Which melting point does the source give for `CS(=O)(=O)OCc1cc(-c2ccc3c(c2)CCO3)nn(CC=Cc2ccc(Cl)cc2)c1=O` here?
A: Its melting point is 135 to 140 °C.

Q: Which melting point does the source give for `CCOC1=NCCNC(c2ccccc2)=C1` here?
A: The melting point was 89 to 93.5 °C.

Q: Which melting point does the source give for `CCOC(=O)C1=C(C)NC(N=CN(C)C)=C(C(=O)OCC)C1c1ccccc1Cl` (stereo not given) here?
A: Its melting point is 140 °C.

Q: With `Cc1ccc2c(c1)oc1c(C(=O)NC3C4CC5CC(C4)CC3C5)nn(-c3ccc(Cl)cc3Cl)c12` (stereo not given) as the compound, how does the melting point read?
A: The melting point was 209 to 211 °C.

Q: Which melting point does the source give for `COc1ccc(C(=C/C=C/C(=O)O)c2ccc(OC)c(OC)c2)cc1OC` here?
A: The melting point was 174 to 176 °C.

Q: Which melting point does the source give for `Cc1onc(-c2ccc(Br)o2)c1-c1ccccc1` here?
A: The melting point was 93 to 96 °C.

Q: With `Cc1nc2cc(C)c(C)cc2c(=O)[nH]1` as the compound, how does the melting point read?
A: The melting point was 310 to 312 °C.

Q: Which melting point does the source give for `CC(C(=O)O)c1ccc(N2CC3=C(CC=CC3)C2=O)cc1` (stereo not given) here?
A: The melting point was 220 to 222 °C.

Q: Which melting point does the source give for `CC(=O)OCC1C(C(=O)O)C1(C)C` (stereo not given) here?
A: The melting point was 78 to 79 °C.

Q: With `Cn1c(=O)n(-c2cc(Cl)ccc2O)c2ccc(F)cc21` as the compound, how does the melting point read?
A: Its melting point is 247 to 250 °C.

Q: With `CC(=O)c1cc(F)c(O)c(F)c1` as the compound, how does the melting point read?
A: The melting point was 141 to 143 °C.

Q: Which melting point does the source give for `CCc1ncc2n1-c1ccc(Cl)cc1C(c1ccccc1F)=NC2` here?
A: Its melting point is 140 to 143 °C.

Q: For `CCOC(O)(OCC)C(Cc1ccc2ccccc2c1)NC(=O)OC(C)(C)C` (stereo not given), which melting point is on record?
A: Its melting point is 87 °C.

Q: For `OC(CCc1ccoc1)c1cnc2sc3c(n12)CCCCC3` (stereo not given), which melting point is on record?
A: Its melting point is 153 to 155 °C.

Q: Which melting point does the source give for `Cc1cc2ccccc2c(C2CC(=O)C=C(O)C2)c1C` (stereo not given) here?
A: Its melting point is 242 °C.

Q: With `CCn1ncc2c1ncc1c(=O)n(C)c3ncnn3c12` as the compound, how does the melting point read?
A: The melting point was 208 to 210 °C.

Q: With `Cc1ccc(S(=O)(=O)N2CC[C@@H](C)[C@@H]2c2ccc(F)cc2)cc1` (racemic) as the compound, how does the melting point read?
A: Its melting point is 112 °C.

Q: For `N#Cc1cnn2c(C(F)(F)F)cc(-c3ccc(F)cc3F)nc12`, which melting point is on record?
A: The melting point was 149 °C.

Q: Which melting point does the source give for `Cc1oc(-c2ccco2)nc1COc1ccc(COc2nn(-c3ccccc3)cc2/C=C/C(=O)O)cc1` here?
A: The melting point was 144 to 145 °C.

Q: For `CN1CCC(C2(O)c3ccccc3Oc3ccc(F)cc32)CC1` (stereo not given), which melting point is on record?
A: The melting point was 193 to 200 °C.

Q: With `CN(O)C(=O)NCCCCCOc1ccc(-c2ccccc2)cc1` as the compound, how does the melting point read?
A: Its melting point is 153 to 154 °C.

Q: With `CN1C(=O)C(NC(=O)Nc2cccc(F)c2)N=C(c2ccccc2)c2ccccc21` (stereo not given) as the compound, how does the melting point read?
A: The melting point was 252 to 254 °C.

Q: With `CCCCCCCCCCCCP(=O)(O)CCCNC(=O)OCc1ccccc1` as the compound, how does the melting point read?
A: The melting point was 115 to 116 °C.

Q: With `CCOC(=O)c1c(C)nc(O)nc1O` as the compound, how does the melting point read?
A: Its melting point is 145 to 148 °C.
